In US9546160B2, “Hepatitis C virus inhibitors” (Bristol-Myers Squibb Company, priority 2011, dated 2017):
Where two headings read alike, the source gives them in different places.

Tested on: HCV 1b genotype
Experiment: HCV Replicon assay
Assay type: cell-based
Conditions: HCV 1b genotype replicon
Procedure: An HCV Replicon assay was utilized in the present disclosure, and was prepared, conducted and validated as described in commonly owned PCT/US2006/022197 and in O'Boyle et. al. Antimicrob Agents Chemother. 2005 Apr; 49(4):1346-53. Assay methods incorporating luciferase reporters have also been used as described (Apath.com).
HCV-neo replicon cells and replicon cells containing resistance substitutions in the NS5A region were used to test the currently described family of compounds.

[1] = read-out: Range (EC50 ranges against HCV 1b)
[2] = Hepatitis C virus, read-out: 1b (μM) EC50 (Effective 50% inhibitory concentration)
[3] = Hepatitis C virus, read-out: Range (EC50 ranges against HCV 1b)

SMILES: COC(=O)NC(C(=O)N1[C@@H](C)CC[C@H]1c1ncc(-c2ccc(-c3ccc(-c4cnc([C@@H]5CC[C@H](C)N5C(=O)C(NC(=O)OC)C5CCOC6(CCCC6)C5)[nH]4)cc3)cc2)[nH]1)C1CCOC2(CCCC2)C1 (single isomer, unassigned) [Example 3.1]
- EC50 [1]: 900 to 140000 pM

SMILES: COC(=O)NC(C(=O)N1[C@@H]2C[C@@H]2C[C@H]1c1nc(-c2ccc(-c3ccc(-c4c[nH]c([C@@H]5C[C@H]6C[C@H]6N5C(=O)C(NC(=O)OC)[C@@H]5C[C@@H]6C[C@@H]6C5)n4)cc3)cc2)c[nH]1)[C@@H]1C[C@@H]2C[C@@H]2C1 (stereo partly drawn) [QC3.3, dimethyl (4,4′-biphenyldiylbis(1H-imidazole-4,2-diyl(1R,3S,5R)-2-azabicyclo[3.1.0]hexane-3,2-diyl(1-((1R,3r,5S)-bicyclo[3.1.0]hex-3-yl)-2-oxo-2,1-ethanediyl)))biscarbamate]
- EC50 [1]: 100 to 900 pM

SMILES: COC(=O)N[C@@H](C(=O)N1C2C[C@@H]2C[C@H]1c1nc(-c2ccc(-c3ccc(-c4c[nH]c([C@@H]5C[C@H]6CC6N5C(=O)[C@H](NC(=O)OC)C5[C@H]6COC[C@@H]56)n4)cc3)cc2)c[nH]1)C1[C@H]2COC[C@@H]12 (stereo partly drawn) [QC4.1, dimethyl (4,4′-biphenyldiylbis(1H-imidazole-4,2-diyl(1R,3S,5R)-2-azabicyclo[3.1.0]hexane-3,2-diyl(1-((1R,5S,6s)-3-oxabicyclo[3.1.0]hex-6-yl)-2-oxo-2,1-ethanediyl)))biscarbamate]
- EC50 [1]: 5.01 to 100 pM

SMILES: COC(=O)NC(C(=O)N1[C@@H]2C[C@@H]2C[C@H]1c1nc(-c2ccc(-c3ccc(-c4c[nH]c([C@@H]5C[C@H]6C[C@H]6N5C(=O)C(NC(=O)OC)[C@H]5C[C@@H]6C[C@@H]6C5)n4)cc3)cc2)c[nH]1)[C@H]1C[C@@H]2C[C@@H]2C1 (single isomer, unassigned) [QC5.3]
- EC50 [2]: 5.55 pM
- EC50 [3]: 5.01 to 100 pM

SMILES: COC(=O)NC(C(=O)N1CCC[C@H]1c1nc(-c2ccc(-c3c[nH]c([C@@H]4CCCN4C(=O)C(NC(=O)OC)C4CCOC5(CC5)C4)n3)cc2)c[nH]1)C1CCOC2(CC2)C1 (stereo partly drawn) [Example QC14, dimethyl (benzene-1,4-diylbis(1H-imidazole-4,2-diyl(2S)pyrrolidine-2,1-diyl(1-(4-oxaspiro[2.5]oct-7-yl)-2-oxoethane-2,1-diyl)))biscarbamate]
- EC50 [3]: 900 to 140000 pM

SMILES: COC(=O)NC(C(=O)N1[C@@H]2C[C@@H]2C[C@H]1c1nc(-c2ccc(-c3ccc(-c4c[nH]c([C@@H]5C[C@H]6C[C@H]6N5C(=O)C(NC(=O)OC)[C@@H]5C[C@@H]6C[C@@H]6C5)n4)cc3)cc2)c[nH]1)[C@@H]1C[C@@H]2C[C@@H]2C1 (stereo partly drawn) [QC3.2, dimethyl (4,4′-biphenyldiylbis(1H-imidazole-4,2-diyl(1R,3S,5R)-2-azabicyclo[3.1.0]hexane-3,2-diyl(1-((1R,3r,5S)-bicyclo[3.1.0]hex-3-yl)-2-oxo-2,1-ethanediyl)))biscarbamate]
- EC50 [1]: 5.01 to 100 pM

SMILES: COC(=O)NC(C(=O)N1[C@@H]2C[C@@H]2C[C@H]1c1nc(-c2ccc(-c3ccc(-c4c[nH]c([C@@H]5C[C@H]6C[C@H]6N5C(=O)C(NC(=O)OC)[C@H]5C[C@@H]6[C@H](C5)C6(F)F)n4)cc3)cc2)c[nH]1)[C@H]1C[C@@H]2[C@H](C1)C2(F)F (stereo partly drawn) [QC2.2, dimethyl (4,4′-biphenyldiylbis(1H-imidazole-4,2-diyl(1R,3S,5R)-2-azabicyclo[3.1.0]hexane-3,2-diyl(1-((1R,3r,5S)-6,6-difluorobicyclo[3.1.0]hex-3-yl)-2-oxo-2,1-ethanediyl)))biscarbamate]
- EC50 [1]: 5.01 to 100 pM

SMILES: COC(=O)NC(C(=O)N1[C@@H](C)CC[C@H]1c1ncc(-c2ccc(-c3ccc(-c4cnc([C@@H]5CC[C@H](C)N5C(=O)C(NC(=O)OC)C5CCOC6(CCCC6)C5)[nH]4)cc3)cc2)[nH]1)C1CCOC2(CCCC2)C1 (single isomer, unassigned) [Example 3.2]
- EC50 [1]: 900 to 140000 pM

SMILES: COC(=O)NC(C(=O)N1[C@@H](C)CC[C@H]1c1nc(-c2ccc(-c3ccc(-c4c[nH]c([C@@H]5CC[C@H](C)N5C(=O)C(NC(=O)OC)C5CCC6(CC6)OC5)n4)cc3)cc2)c[nH]1)C1CCC2(CC2)OC1 (some centres unmarked) [Example 1.2]
- EC50 [1]: 5.01 to 100 pM

SMILES: COC(=O)NC(C(=O)N1[C@@H](C)CC[C@H]1c1ncc(-c2ccc(-c3ccc(-c4cnc([C@@H]5CC[C@H](C)N5C(=O)C(NC(=O)OC)C5CCOC6(CCC6)C5)[nH]4)cc3)cc2)[nH]1)C1CCOC2(CCC2)C1 (single isomer, unassigned) [Example 2.2]
- EC50 [1]: 900 to 140000 pM

SMILES: COC(=O)NC(C(=O)N1[C@@H](C)CC[C@H]1c1nc(-c2ccc(-c3ccc(-c4c[nH]c([C@@H]5CC[C@H](C)N5C(=O)C(NC(=O)OC)C5CCC6(CC6)OC5)n4)cc3)cc2)c[nH]1)C1CCC2(CC2)OC1 (some centres unmarked) [Example 1.1]
- EC50 [3]: 5.01 to 100 pM

SMILES: COC(=O)NC(C(=O)N1[C@@H]2C[C@@H]2C[C@H]1c1nc(-c2ccc(-c3ccc(-c4c[nH]c([C@@H]5C[C@H]6C[C@H]6N5C(=O)C(NC(=O)OC)[C@H]5C[C@@H]6[C@H](C5)C6(F)F)n4)cc3)cc2)c[nH]1)[C@H]1C[C@@H]2[C@H](C1)C2(F)F (stereo partly drawn) [QC2.3, dimethyl (4,4′-biphenyldiylbis(1H-imidazole-4,2-diyl(1R,3S,5R)-2-azabicyclo[3.1.0]hexane-3,2-diyl(1-((1R,3r,5S)-6,6-difluorobicyclo[3.1.0]hex-3-yl)-2-oxo-2,1-ethanediyl)))biscarbamate]
- EC50 (read-out: 1b (μM) EC50 (Effective 50% inhibitory concentration)): 1080 pM
- EC50 [1]: 900 to 140000 pM

SMILES: COC(=O)N[C@H](C(=O)C1[C@@H](CF)CC[C@H]1c1ncc(-c2ccc(-c3ccc(-c4cnc([C@@H]5CC[C@H](CF)N5C(=O)[C@@H](NC(=O)OC)[C@H]5CCOC6(CC6)C5)[nH]4)cc3)cc2)[nH]1)[C@H]1CCOC2(CC2)C1 (some centres unmarked) [Example 8]
- EC50 [3]: 5.01 to 100 pM

SMILES: COC(=O)NC(C(=O)N1[C@@H](C)CC[C@H]1c1ncc(-c2ccc(-c3ccc(-c4cnc([C@@H]5CC[C@H](C)N5C(=O)C(NC(=O)OC)C5CCOC6(CCC6)C5)[nH]4)cc3)cc2)[nH]1)C1CCOC2(CCC2)C1 (single isomer, unassigned) [Example 2.1]
- EC50 [1]: 900 to 140000 pM

SMILES: COC(=O)NC(C(=O)N1[C@@H]2C[C@@H]2C[C@H]1c1nc(-c2ccc(-c3ccc(-c4c[nH]c([C@@H]5C[C@H]6C[C@H]6N5C(=O)C(NC(=O)OC)[C@@H]5C[C@@H]6[C@H](C5)C6(F)F)n4)cc3)cc2)c[nH]1)[C@@H]1C[C@@H]2[C@H](C1)C2(F)F (single isomer, unassigned) [QC1.2]
- EC50 [2]: 4.9 pM

SMILES: COC(=O)N[C@@H](C(=O)N1C2C[C@@H]2C[C@H]1c1nc(-c2ccc(-c3ccc(-c4c[nH]c([C@@H]5C[C@H]6CC6N5C(=O)[C@H](NC(=O)OC)C5[C@H]6COC[C@@H]56)n4)cc3)cc2)c[nH]1)C1[C@H]2COC[C@@H]12 (stereo partly drawn) [QC4.2, dimethyl (4,4′-biphenyldiylbis(1H-imidazole-4,2-diyl(1R,3S,5R)-2-azabicyclo[3.1.0]hexane-3,2-diyl(1-((1R,5S,6s)-3-oxabicyclo[3.1.0]hex-6-yl)-2-oxo-2,1-ethanediyl)))biscarbamate]
- EC50 [1]: 100 to 900 pM

SMILES: COC(=O)NC(C(=O)N1[C@@H]2C[C@@H]2C[C@H]1c1nc(-c2ccc(-c3ccc(-c4c[nH]c([C@@H]5C[C@H]6C[C@H]6N5C(=O)C(NC(=O)OC)[C@@H]5C[C@@H]6[C@H](C5)C6(F)F)n4)cc3)cc2)c[nH]1)[C@@H]1C[C@@H]2[C@H](C1)C2(F)F (single isomer, unassigned) [QC1.3]
- EC50 [3]: 100 to 900 pM

SMILES: COC(=O)NC(C(=O)N1[C@@H](C)CC[C@H]1c1ncc(-c2ccc(-c3ccc(-c4cnc([C@@H]5CC[C@H](C)N5C(=O)C(NC(=O)OC)C5CC6(CC6)C5)[nH]4)cc3)cc2)[nH]1)C1CC2(CC2)C1 (some centres unmarked) [Example 5.2]
- EC50 [3]: 900 to 140000 pM
